Results reported in patent publication US7346384B2, “Method of magnetic resonance investigation of a sample using a nuclear spin polarised MR imaging agent” (GE Healthcare AS, priority 2000, dated 2008).

What was measured:
[1] = T1 relaxation time of the reporter compound; assay type: physicochemical; details: high T1 agent; 15N storage nucleus; no field or temperature printed for this value
water solubility = assay type: physicochemical

For `[2H]C([2H])(F)C([2H])([2H])[N+](C)(C)C` [molecule (I)], the T1 value [1] was “about 3 minutes” and the water solubility (water solubility) was “good”.
